The target of series [1] is T1, human EP4 receptor (Homo sapiens, UniProt P35408).
T1 construct: expressed in transfected cells; membrane fraction used
In words: [3H]-Prostaglandin E2 membrane binding assay (human EP4/HEK293 transfectant membranes). The settings on record: [3H]-PGE2 1 nM, hEP4/HEK293 membranes; Ki by Cheng-Prusoff; read-out: Binding pKi (converted). The text has this:
(§1) Stable Expression of Human EP4 Receptors in the Human Embryonic Kidney (HEK293) Cell Line
(§2) The cDNA clone of human EP4 receptor (NM_000958.2) was obtained from Invitrogen™: Ultimate™ ORF Clone Collection—Clone ID IOH46525. The coding sequence was subcloned in expression vector pcDNA™6.2/V5-DEST by Gateway technology (Invitrogen™).
(§3) Human embryonic kidney cells (HEK-293) were stably transfected with expression vector for human EP4 receptor in according to the method described in FuGENE®6 Transfection Reagent's manual (Roche Applied Science®).
(§4) Preparation of Membrane Fraction:
(§5) The EP4 transfected cells were grown in Dulbecco's modified Eagle's medium containing 10% fetal bovine serum and 10 μg/ml Blasticidin S HCl (selection medium) at 37° C. in a humidified atmosphere of 5% CO2 in air.
(§6) For the membrane preparation, cells in flask were harvested by hypotonical/mechanical lysis with chilled (4° C.) TE buffer (5 mM TRIS, 5 mM etylenediamine tetra-acetic acid (EDTA), pH 7.4).
(§7) Cells were detached and lysed with 10 ml of hypotonic lysis buffer and by scraping. The cell lysate was vortexed for 30 sec and centrifuged at 40000×g at 4° C. for 22 min.
a) Membrane Binding Assay[3H]-Prostaglandin E2
The membrane pellet was resuspended in the same buffer (5 mM TRIS, 5 mM ethylenediamine tetra-acetic acid (EDTA), pH 7.4), and protein concentration was determined by Bradford method (Bio-Bad® assay).
This membrane preparation was stored at −80° C. freezer until use for binding assay.
([^3H]-PGE2) membranes binding assays toward hEP4 receptors (human EP4/HEK293 transfectant, see above) and hEP2 receptors (human EP2/HEK293 transfectant, purchased from PerkinElmer Inc) were performed in 10 mM MES-KOH buffer pH6, containing 10 mM MgCl2 and 1 mM CaCl2 for EP4 binding assay or 50 mM Tris-Cl, BSA 0.5% for EP2 binding assay (according to supplier indication).
Ten microgram of protein from membrane fractions were incubated in a total volume of 0.1 ml (EP4) or 0.2 ml (EP2) with 1 nM (EP4) or 3 nM (EP2) [^3H]-PGE2 (PerkinElmer Inc, 171 Ci/mmol). In both assays to determine the total binding or non specific binding, 1% DMSO or 1 μM prostaglandin E2 (EP4) or 100 μM (EP2) were added to reaction mixtures, respectively. Incubation was conducted in a polypropylene 96 multiwell for 90 min (EP4) or 60 min (EP2) at room temperature prior to separation of the bound and free radioligand by vacuum manifold rapid filtration on glass fiber filters (Unifilter GFB96, PerkinElmer Inc) pre-soaked in 0.3% polyethyleneimine. Filters were washed with ice cold buffer pH 7.4 (50 mM HEPES, NaCl 500 mM, BSA 0.1% for EP4 binding assay or 50 mM Tris-Cl for EP2 binding assays) and the residual [^3H]-PGE2 binding determined by solid scintillation counter (TopCount, PerkinElmer Inc).
The affinity (Ki) of each compound was calculated according to the Cheng-Prousoff equation: Ki=IC50/(1+([C]/Kd)). Results were expressed as pKi (−log 10 Ki (M)
Compounds of example 1 to 82 were tested according to method of example 83a in a final concentration range from 1 nM to 1 μM.

Series [2] has as its target T1, human EP4 receptor. In words: cAMP assay (AlphaScreen) on human EP4 membrane of transfected cells, antagonism of PGE2. The format is biochemical. The conditions noted are these: HEK293 hEP4 cell membrane stimulated with PGE2 3 nM; read-out: functional IC50.
Excerpt: as §1, §2, §3, §4, §5, §6, §7
b) cAMP Assay on Human EP4 Membrane of Transfected Cells.
The assay is based on the competition between endogenous cAMP and exogenously added biotinylated cAMP. The capture of cAMP is achieved by using a specific antibody conjugated to […] beads.
Cell membranes prepared as described above, were resuspended in 1 ml stimulation buffer (HBSS 1×+BSA 0.1%+IBMX 0.5 mM+HEPES 5 mM+MgCl2 10 mM+GTP 1 nM+GDP 10 μM+ATP 100 μM−pH 7.4). Cell membranes were dispensed into white 384-well microplates at final concentration of 1 μg/well and used for the determination of cAMP with the alphascreen cAMP functional assay (EnVision—PerkinElmer). Cell membrane/anti-cAMP Acceptor beads mix (5 μl) and a mixture of analysed compounds (dissolved in 100% DMSO to a final maximal concentration of 0.01% DMSO)/PGE2 (5 μl) were incubated at room temperature (22-23° C.) for 30 min in the dark. The Biotinylated-cAMP and donor beads (15 μl) were dispensed into each well to start the competition reaction. After 1 h incubation RT (22-23° C.) in the dark the plate was read using EnVision platform to determine the cAMP level (excitation: 680 nm; emission: 520,620 nm).
cAMP standard curve (concentration range from 1×10-6 to 1×10-11 M in. log intervals) with a negative control (no cAMP) a positive control:forskolin 10 μM
Antagonism studies were performed stimulating HEK293 cell membrane with PGE2 3 nM. The AlphaScreen signal is plotted as a function of log concentration of cAMP and functional IC50 is determined. IC50 value is calculated by linear regression.
Some compounds were tested according to method of example 83b.

A short description of series [3]: Pharmacokinetics in male Han Wistar rats, intravenous and oral. It is filed as in vivo. The settings on record: rat, 1.0 mg/kg; for half-life: read-out: t½* (converted). The method, then:
Determination of PK of the Invention Compounds
The pharmacokinetics of compounds E10, E16, E34, E38, E51, were studied in male Han Wistar rats. The rats were treated intravenously and orally (n=3 for each dose route) with a compounds formulated as solutions. The rats were fitted with a jugular cannula for serial sampling. A full profile was acquired for each rat. Plasma extracts were quantitatively analyzed using a specific and sensitive LC-MS/MS bioanalytical method. Inter-individual variations between the three rats in each group were limited (CV for pharmacokinetic parameters was below 50%).

Where two headings read alike, the source gives them in different places.

Results on 13 compounds are retold here after US8828987B2, “Pyridine amide derivatives as EP4 receptor antagonists” (Rottapharm Biotech S.R.L., priority 2010, dated 2014).

By IC50 is commonly meant the point on the concentration scale where inhibition reaches its midpoint. In general, AUC(0-inf) refers to total exposure, with the tail of the curve extrapolated. A lower AUC(0-inf) goes with less exposure. The term AUC(0-t) denotes the area under the concentration-time curve up to a stated or last time point. A word on the Cmax: it is the maximum level reached in the sampled fluid or tissue. One may read the Tmax as the time at which the peak concentration occurs.

T1 sequence (P35408 whole entry): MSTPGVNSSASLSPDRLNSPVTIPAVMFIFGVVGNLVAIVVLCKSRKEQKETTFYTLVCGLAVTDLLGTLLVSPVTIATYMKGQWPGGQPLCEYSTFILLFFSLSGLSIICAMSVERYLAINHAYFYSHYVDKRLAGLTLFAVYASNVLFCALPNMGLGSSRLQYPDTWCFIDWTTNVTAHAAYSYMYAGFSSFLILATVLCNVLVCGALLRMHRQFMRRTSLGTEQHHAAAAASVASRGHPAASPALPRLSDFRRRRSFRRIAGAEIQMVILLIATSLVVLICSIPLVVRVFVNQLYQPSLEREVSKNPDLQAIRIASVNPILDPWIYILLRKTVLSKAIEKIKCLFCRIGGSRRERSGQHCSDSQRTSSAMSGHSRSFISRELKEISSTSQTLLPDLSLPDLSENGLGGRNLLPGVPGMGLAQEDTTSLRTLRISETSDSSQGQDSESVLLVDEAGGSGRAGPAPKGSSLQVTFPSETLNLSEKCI

Take `Cc1cc(F)ccc1NC1CN(c2ncc(Cl)cc2C(=O)NC2(c3ccc(C(=O)O)cc3)CC2)C1` [E 34, 4-(1-(5-chloro-2-(3-((4-fluoro-2-methylphenyl)amino)azetidin-1-yl)nicotinamido)cyclopropyl)benzoic acid]: the Ki in series [1] was 3.16 nM. Also, in series [2], the half-inhibitory concentration (IC50) was 43 nM. In addition, in series [3] (male, Han Wistar, plasma, IV), the AUC(0-inf) was 302 ng·h/mL, the AUC(0-t) came to 300 ng·h/mL and the half-life was 20.4 min. Besides, the clearance in series [3] (male, Han Wistar, plasma, IV, read-out: CLp* (converted)) was 14.4 mL/min. For the same compound, the Vd in series [3] (male, Han Wistar, plasma, IV, read-out: Vss*) was found to be 0.227 L. Also, in series [3] (male, Han Wistar, plasma, PO), the AUC(0-inf) amounted to 128 ng·h/mL, the AUC(0-t) is 125 ng·h/mL, the maximum concentration (Cmax) is 98.1 ng/mL and the Tmax turned out to be 15 min. The half-life in series [3] (male, Han Wistar, plasma, PO) was 69.6 min. The bioavailability in series [3] (male, Han Wistar, plasma, po, 1 mg/kg, PO, read-out: F %) turned out to be 42%. This compound also yielded a Tlast in series [3] (IV) of 2 h. This compound also had a Tlast in series [3] (PO) of 6 h.
`O=C(O)c1ccc(C2(NC(=O)c3cc(C(F)(F)F)cnc3N3CC(Nc4ccc(F)cc4)C3)CC2)cc1` [E 50, 4-(1-(2-(3-((4-fluorophenyl)amino)azetidin-1-yl)-5-(trifluoromethyl)nicotinamido)cyclopropyl)benzoic acid]: the Ki in series [1] was 12.6 nM. The IC50 in series [2] stood at 23 nM.
As to `O=C(O)c1ccc(C2(NC(=O)c3cc(Cl)cnc3N3CC(Oc4ccc(F)c(F)c4)C3)CC2)cc1` [E 20, 4-(1-(5-chloro-2-(3-(3,4-difluorophenoxy)azetidin-1-yl)nicotinamido)cyclopropyl)benzoic acid], the Ki in series [1] was 10 nM. For the same compound, the IC50 in series [2] is 70 nM.
The like results for `O=C(O)c1ccc(C2(NC(=O)c3cc(Cl)cnc3N3CC(Oc4cccc(C(F)(F)F)c4)C3)CC2)cc1` [E 14, 4-(1-(5-chloro-2-(3-(3-(trifluoromethyl)phenoxy)azetidin-1-yl)nicotinamido)cyclopropyl)benzoic acid] were, in that order, 5.01 nM and 38 nM.
Taken in the same sequence, the figures for `O=C(O)c1ccc(C2(NC(=O)c3cc(C(F)(F)F)cnc3N3CC(Oc4cccc(Cl)c4)C3)CC2)cc1` [E 41, 4-(1-(2-(3-(3-chlorophenoxy)azetidin-1-yl)-5-(trifluoromethyl)nicotinamido)cyclopropyl)benzoic acid] were 5.01 nM and 7.7 nM.
Taken in the same sequence, the figures for `O=C(O)c1ccc(C2(NC(=O)c3cc(Cl)cnc3N3CC[C@H](Oc4cccc(F)c4)C3)CC2)cc1` [E 80, (S)-4-(1-(5-chloro-2-(3-(3-fluorophenoxy)pyrrolidin-1-yl)nicotinamido)cyclopropyl)benzoic acid] were 39.8 nM and 99 nM.
Take `O=C(O)c1ccc(C2(NC(=O)c3cc(Cl)cnc3N3CC(Nc4ccc(F)cc4F)C3)CC2)cc1` [E 35, 4-(1-(5-chloro-2-(3-((2,4-difluorophenyl)amino)azetidin-1-yl)nicotinamido)cyclopropyl)benzoic acid]: in series [1], the Ki is 6.31 nM. The IC50 in series [2] was found to be 59 nM.
The like results for `O=C(O)c1ccc(C2(NC(=O)c3cc(C(F)(F)F)cnc3N3CC(Oc4ccc(F)cc4)C3)CC2)cc1` [E 39, 4-(1-(2-(3-(4-fluorophenoxy)azetidin-1-yl)-5-(trifluoromethyl)nicotinamido)cyclopropyl)benzoic acid] were, in that order, 7.94 nM and 72 nM.
The like results for `O=C(O)c1ccc(C2(NC(=O)c3cc(C(F)(F)F)cnc3N3CC(Oc4cccc(OC(F)(F)F)c4)C3)CC2)cc1` [E 43, 4-(1-(2-(3-(3-(trifluoromethoxy)phenoxy)azetidin-1-yl)-5-(trifluoromethyl)nicotinamido)cyclopropyl)benzoic acid] were, in that order, 3.16 nM and 38 nM.
Taken in the same sequence, the figures for `O=C(NC1(c2ccc(-c3nnn[nH]3)cc2)CC1)c1cc(Cl)cnc1N1CC(Oc2cccc(F)c2)C1` [E 82, N-(1-(4-(1H-tetrazol-5-yl)phenyl)cyclopropyl)-5-chloro-2-(3-(3-fluorophenoxy)azetidin-1-yl)nicotinamide] were 5.01 nM and 27 nM.
`O=C(O)c1ccc(C2(NC(=O)c3cc(Cl)cnc3N3CC(Oc4ccc(C(F)(F)F)cc4)C3)CC2)cc1` [E 13, 4-(1-(5-chloro-2-(3-(4-(trifluoromethyl)phenoxy)azetidin-1-yl)nicotinamido)cyclopropyl)benzoic acid]: the Ki in series [1] was 25.1 nM. For the same compound, in series [2], the concentration for half-maximal inhibition (IC50) was 187 nM.
For the compound `O=C(O)c1ccc(C2(NC(=O)c3cc(Cl)cnc3N3CC(Nc4ccc(F)cc4)C3)CC2)cc1` [E 33, 4-(1-(5-chloro-2-(3-((4-fluorophenyl)amino)azetidin-1-yl)nicotinamido)cyclopropyl)benzoic acid], in series [1], the Ki was 6.31 nM. The IC50 in series [2] is 44.5 nM.
Taken in the same sequence, the figures for `O=C(O)c1ccc(C2(NC(=O)c3cc(Cl)cnc3N3CCC(Oc4cccc(C(F)(F)F)c4)C3)CC2)cc1` (single isomer, unassigned) [E 64, 4-(1-(5-chloro-2-(3-(3-(trifluoromethyl)phenoxy)pyrrolidin-1-yl)nicotinamido)cyclopropyl)benzoic acid] were 31.6 nM and 99 nM.
